Measured values taken from ChEMBL document CHEMBL1127107, “The affinity of the excised binding domain of FK-506 for the immunophilin FKBP12” (Bioorg Med Chem Lett, 1993).

Target: Peptidyl-prolyl cis-trans isomerase FKBP1A (Homo sapiens, UniProt P62942)
Experiment: The compound was evaluated for its affinity to the binding domain of immunophilin FK506 binding protein 12

Chain of Peptidyl-prolyl cis-trans isomerase FKBP1A (P62942 whole entry, the tested form may be a part): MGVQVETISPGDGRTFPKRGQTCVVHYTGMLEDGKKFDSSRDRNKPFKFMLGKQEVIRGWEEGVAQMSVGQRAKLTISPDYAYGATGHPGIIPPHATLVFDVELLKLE

Kd: 10 nM
Structure (SMILES): COC[C@H]1O[C@@](O)(C(=O)C(=O)N2CCCC[C@H]2C(=O)OC/C(C)=C/[C@@H]2CC[C@@H](O)[C@H](OC)C2)[C@H](C)C[C@@H]1OC
